Data as given in patent publication US12661342B2, “Heteroaryl compounds and therapeutic uses thereof in conditions associated with the alteration of the activity of beta-glucocerebrosidase” (GT GAIN THERAPEUTICS SA, priority 2019, dated 2026).

These compounds were tested against T1, β-glucocerebrosidase (Homo sapiens, UniProt P04062, L483P) (assay: Enhancement of β-glucocerebrosidase activity measured in Gaucher disease fibroblasts (4-MU-β-D-glucopyranoside substrate, intact cells)). Details: GBA fibroblasts bearing L444P (GM08760A, homozygous p.L444P); compound at concentrations between 6 and 50 μM; 4 days incubation.
T1 construct: host or cells: human Gaucher disease patient fibroblasts GM08760A
T1 sequence (P04062 40-536 L483P): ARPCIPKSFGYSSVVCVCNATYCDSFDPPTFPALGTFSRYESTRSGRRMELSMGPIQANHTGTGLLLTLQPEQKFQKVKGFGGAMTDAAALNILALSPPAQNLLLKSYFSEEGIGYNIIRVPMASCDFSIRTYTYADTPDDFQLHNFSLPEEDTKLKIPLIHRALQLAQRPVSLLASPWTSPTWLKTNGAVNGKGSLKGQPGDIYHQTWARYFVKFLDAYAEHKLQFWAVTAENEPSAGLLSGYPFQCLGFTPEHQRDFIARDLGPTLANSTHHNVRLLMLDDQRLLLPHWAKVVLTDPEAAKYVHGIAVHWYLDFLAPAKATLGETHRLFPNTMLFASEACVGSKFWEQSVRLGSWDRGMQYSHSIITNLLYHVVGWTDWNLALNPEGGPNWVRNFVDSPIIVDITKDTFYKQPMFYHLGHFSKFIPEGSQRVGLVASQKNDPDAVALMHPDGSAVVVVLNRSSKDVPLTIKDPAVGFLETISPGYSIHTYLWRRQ
Type: cell-based
Set-up: key: Increase in comparison with non-treated of >2.0 fold is shown as A; Increase in comparison with non-treated of >1.7-2.0 fold is shown as B; Increase in comparison with non-treated of 1.2-1.7 fold is shown as C; D means that no increase compared with non-treated cells was detected in this method
Summary of the method: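 Patient fibroblasts homozygous for p.L444P (GM08760A), grown in DMEM/10% FBS and exposed to compound for 4 days. Intact cells then given 4-MU-β-D-glucopyranoside in 0.1 M acetate pH 4, 1 h, 37 °C; stopped at pH 10.7, 4-MU fluorescence ex 340/em 460. Value is fold increase over untreated cells; binned at 6–50 μM.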

Structure (SMILES) | Range: increase in enzyme activity in comparison with non-treated cells (Enzyme activity assay for compounds of Examples 33-141) | Range: increase in enzyme activity in comparison with non-treated cells (Enzyme activity assay for exemplified compounds)
Cc1ccc(Nc2cc(N)nc(C(=O)NC3Cc4ccccc4C3)c2)c(O)c1 [Example 68, 6-Amino-N-(2,3-dihydro-1H-inden-2-yl)-4-((2-hydroxy-4-methylphenyl)amino)picolinamide] | C (Increase in comparison with non-treated of 1.2-1.7 fold is shown as C) | 
Nc1cc(Nc2ccccc2O)cc(C(=O)N2CCc3ccccc3C2)n1 [Example 49, (6-Amino-4-((2-hydroxyphenyl)amino)pyridin-2-yl)(3,4-dihydroisoquinolin-2(1H)-yl)methanone] | B (Increase in comparison with non-treated of >1.7-2.0 fold is shown as B) | 
Cc1ccc(Nc2nc(N)cc(C(=O)N3CCN(c4ccccc4)CC3)n2)cc1 [Example 3, (6-Amino-2-(p-tolylamino)pyrimidin-4-yl)(4-phenylpiperazin-1-yl)methanone] |  | C (Increase in comparison with non-treated of 1.2-1.7 fold is shown as C)
Nc1nc2c(c(Nc3ccccc3O)n1)CCN(c1ccccc1)C2 [Example 32, 2-((2-Amino-7-phenyl-5,6,7,8-tetrahydropyrido[3,4-d]pyrimidin-4-yl)amino)phenol] |  | B (Increase in comparison with non-treated of >1.7-2.0 fold is shown as B)
Cc1ccc(Nc2nc(N)cc(C(=O)NC3CCc4ccccc4C3)n2)cc1 (stereo not shown) [Example 22, 6-Amino-N-(1,2,3,4-tetrahydronaphthalen-2-yl)-2-(p-tolylamino)pyrimidine-4-carboxamide] |  | A (Increase in comparison with non-treated of >2.0 fold is shown as A)
Nc1cc(C(=O)N2CCCc3ccccc32)nc(Nc2ccccc2O)n1 [Example 36, (6-Amino-2-((2-hydroxyphenyl)amino)pyrimidin-4-yl)(3,4-dihydroquinolin-1(2H)-yl)methanone] | C (Increase in comparison with non-treated of 1.2-1.7 fold is shown as C) | 
COc1cccc(Nc2cc(N)cc(C(=O)NC3Cc4ccccc4C3)n2)c1 [Example 100, 4-Amino-N-(2,3-dihydro-1H-inden-2-yl)-6-((3-methoxyphenyl)amino)picolinamide] | A (Increase in comparison with non-treated of >2.0 fold is shown as A) | 
COc1cccc(Nc2nc(N)cc(C(=O)N3CCN(c4ccccc4)CC3)n2)c1 [Example 2, (6-Amino-2-((3-methoxyphenyl)amino)pyrimidin-4-yl)(4-phenylpiperazin-1-yl)methanone] |  | C (Increase in comparison with non-treated of 1.2-1.7 fold is shown as C)
COc1ccccc1Nc1cc(N)cc(C(=O)N(C)C2Cc3ccccc3C2)n1 [Example 106, 4-Amino-N-(2,3-dihydro-1H-inden-2-yl)-6-((2-methoxyphenyl)amino)-N-methyl-picolinamide] | C (Increase in comparison with non-treated of 1.2-1.7 fold is shown as C) | 
Nc1cc(Nc2cccnc2)cc(C(=O)Nc2ccccc2)n1 [Example 80, 6-Amino-N-phenyl-4-(pyridin-3-ylamino)picolinamide] | C (Increase in comparison with non-treated of 1.2-1.7 fold is shown as C) | 
COc1ccccc1Nc1cc(N)nc(C(=O)N2Cc3ccccc3C2)c1 [Example 59, (6-Amino-4-((2-methoxyphenyl)amino)pyridin-2-yl)(isoindolin-2-yl)methanone] | C (Increase in comparison with non-treated of 1.2-1.7 fold is shown as C) | 
Nc1cc(Nc2ccccc2O)nc(C(=O)NC2Cc3ccccc3C2)n1 [Example 56, 4-Amino-N-(2,3-dihydro-1H-inden-2-yl)-6-((2-hydroxyphenyl)amino)pyrimidine-2-carboxamide] | B (Increase in comparison with non-treated of >1.7-2.0 fold is shown as B) | 
Nc1cc(C(=O)N2Cc3ccccc3C2)nc(Nc2cccc(Cl)c2)n1 [Example 41] | D | 
CN(Cc1ccccc1)C(=O)c1nc(N)nc(Nc2cccc(Br)c2)n1 [Example 17, 4-Amino-N-benzyl-6-((3-bromophenyl)amino)-N-methyl-1,3,5-triazine-2-carboxamide] |  | D
Cc1ccc(Nc2nc(N)cc(C(=O)N(C)Cc3ccccc3)n2)cc1 [Example 21, 6-Amino-N-benzyl-N-methyl-2-(p-tolylamino)pyrimidine-4-carboxamide] |  | C (Increase in comparison with non-treated of 1.2-1.7 fold is shown as C)
Nc1cc(Nc2cccc3c2OCO3)cc(C(=O)NC2Cc3ccccc3C2)n1 [Example 123, 6-Amino-4-(benzo[d][1,3]dioxol-4-ylamino)-N-(2,3-dihydro-1H-inden-2-yl)picolinamide] | C (Increase in comparison with non-treated of 1.2-1.7 fold is shown as C) | 
